According to patent US8148391B2 (Cephalon, Inc., priority 2006, dated 2012):

Assays:
[1] = target: T1, baculovirus-expressed ALK (Homo sapiens, UniProt Q9UM73); experiment: ALK Kinase Assay (ELISA-type, time-resolved fluorescence); type: biochemical; conditions: ALK kinase inhibition, 1 μM ATP (Km level); read-out: ALK Activity
T1 construct: host or cells: baculovirus expression system
Summary of the method: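 Plates coated with phospholipase C-γ substrate (10 μg/mL in TBS); reaction started with 30 ng/ml ALK and run 15 min at 37° C. Phosphorylated substrate detected with Eu-N1-labeled PT66 antibody. IC50 from sigmoidal variable-slope fit of percent inhibition vs log concentration.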

[2] = target: T2, c-Met (cytoplasmic domain) (Homo sapiens, UniProt P08581); experiment: c-Met Kinase Assay (same methods as for ALK, with modifications); type: biochemical; conditions: c-Met kinase inhibition, 1 μM ATP (Km level); read-out: cMet Activity
T2 construct: 10 ng/mL c-Met (cytoplasmic domain, Invitrogen Corporation #PV3143); purchased Invitrogen Corporation PV3143
T2 sequence (P08581 956-1390 limits assumed): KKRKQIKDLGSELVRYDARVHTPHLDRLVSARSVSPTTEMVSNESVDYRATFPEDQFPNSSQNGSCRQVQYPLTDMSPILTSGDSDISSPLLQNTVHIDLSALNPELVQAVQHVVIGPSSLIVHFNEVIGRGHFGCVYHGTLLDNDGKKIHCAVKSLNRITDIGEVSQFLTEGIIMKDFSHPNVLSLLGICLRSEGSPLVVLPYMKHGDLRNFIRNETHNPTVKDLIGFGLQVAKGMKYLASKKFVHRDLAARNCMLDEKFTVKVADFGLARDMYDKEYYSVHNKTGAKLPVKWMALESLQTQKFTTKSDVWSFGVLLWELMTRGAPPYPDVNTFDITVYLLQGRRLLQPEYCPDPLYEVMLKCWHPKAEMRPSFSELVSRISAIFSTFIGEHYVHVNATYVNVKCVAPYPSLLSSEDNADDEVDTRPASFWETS
Summary of the method: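 Europium-labeled PT66 antibody (Eu-N1) detects substrate phosphorylation on wells coated with phospholipase C-γ at 10 μg/mL. The kinase, the cytoplasmic domain of c-Met at 10 ng/mL, starts the reaction, which proceeds 15 minutes at 37° C.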

T1 sequence (Q9UM73 19-1620): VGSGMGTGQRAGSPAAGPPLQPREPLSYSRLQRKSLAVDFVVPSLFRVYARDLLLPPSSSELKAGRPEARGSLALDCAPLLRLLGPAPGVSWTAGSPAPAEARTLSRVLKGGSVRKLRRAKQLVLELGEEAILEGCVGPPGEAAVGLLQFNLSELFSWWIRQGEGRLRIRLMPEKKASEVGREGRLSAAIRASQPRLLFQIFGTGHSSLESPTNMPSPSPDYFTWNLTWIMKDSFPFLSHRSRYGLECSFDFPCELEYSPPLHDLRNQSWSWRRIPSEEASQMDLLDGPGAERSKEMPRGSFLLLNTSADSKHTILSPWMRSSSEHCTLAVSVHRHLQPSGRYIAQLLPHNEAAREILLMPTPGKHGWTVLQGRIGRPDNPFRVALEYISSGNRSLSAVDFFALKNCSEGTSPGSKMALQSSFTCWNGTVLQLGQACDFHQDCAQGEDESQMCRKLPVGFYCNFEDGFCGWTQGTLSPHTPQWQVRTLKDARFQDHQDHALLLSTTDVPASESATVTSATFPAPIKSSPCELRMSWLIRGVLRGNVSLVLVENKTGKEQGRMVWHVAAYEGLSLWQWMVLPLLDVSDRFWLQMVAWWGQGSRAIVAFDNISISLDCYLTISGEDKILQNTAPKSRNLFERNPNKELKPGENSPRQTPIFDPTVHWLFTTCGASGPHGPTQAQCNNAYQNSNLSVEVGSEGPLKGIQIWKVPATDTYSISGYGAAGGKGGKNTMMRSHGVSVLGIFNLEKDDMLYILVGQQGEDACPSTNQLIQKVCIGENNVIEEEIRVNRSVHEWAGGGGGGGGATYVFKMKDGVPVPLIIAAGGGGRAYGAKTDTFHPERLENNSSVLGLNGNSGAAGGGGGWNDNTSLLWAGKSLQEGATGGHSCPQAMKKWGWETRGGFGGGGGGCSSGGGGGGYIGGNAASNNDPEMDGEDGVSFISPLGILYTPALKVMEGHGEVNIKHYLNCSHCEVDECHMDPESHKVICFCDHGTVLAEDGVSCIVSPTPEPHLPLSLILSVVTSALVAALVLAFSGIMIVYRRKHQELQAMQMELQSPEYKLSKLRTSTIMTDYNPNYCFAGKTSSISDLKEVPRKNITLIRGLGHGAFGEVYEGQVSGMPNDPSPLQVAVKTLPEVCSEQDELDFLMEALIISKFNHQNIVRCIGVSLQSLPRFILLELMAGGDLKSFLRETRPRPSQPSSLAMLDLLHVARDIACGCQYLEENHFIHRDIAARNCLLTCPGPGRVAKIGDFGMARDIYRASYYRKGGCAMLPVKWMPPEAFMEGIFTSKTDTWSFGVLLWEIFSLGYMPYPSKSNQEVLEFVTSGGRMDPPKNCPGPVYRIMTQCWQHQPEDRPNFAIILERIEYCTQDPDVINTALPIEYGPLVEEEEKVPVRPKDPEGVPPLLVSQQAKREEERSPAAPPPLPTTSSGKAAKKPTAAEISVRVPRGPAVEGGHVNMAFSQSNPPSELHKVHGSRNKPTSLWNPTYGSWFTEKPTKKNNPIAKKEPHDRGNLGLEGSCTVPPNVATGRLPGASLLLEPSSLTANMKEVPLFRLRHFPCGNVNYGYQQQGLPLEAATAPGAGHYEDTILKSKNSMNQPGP

| Compound | IC50 [1] | IC50 [2] |
| --- | --- | --- |
| CCN1CCc2ccc(Nc3ncc([N+](=O)[O-])c(Nc4ccccc4C(=O)NC)n3)cc2CC1 [Example 193, 2-[2-(3-Ethyl-2,3,4,5-tetrahydro-1H-benzo[d]azepin-7-ylamino)-5-nitro-pyrimidin-4-ylamino]-N-methyl-benzamide] | < 100 nM | 100 to 1000 nM |
| CCN1CCc2ccc(Nc3ncc(C#N)c(Nc4ccccc4C(=O)NC)n3)cc2CC1 [Example 194, 2-[2-(3-Ethyl-2,3,4,5-tetrahydro-1H-benzo[d]azepin-7-ylamino)-5-cyano-pyrimidin-4-ylamino]-N-methyl-benzamide] | < 100 nM | 100 to 1000 nM |
| CCN1CCc2ccc(Nc3ncc(C(F)(F)F)c(Nc4ccccc4C(=O)NC)n3)cc2CC1 [Example 195, 2-[2-(3-Ethyl-2,3,4,5-tetrahydro-1H-benzo[d]azepin-7-ylamino)-5-trifluoromethyl-pyrimidin-4-ylamino]-N-methyl-benzamide] | < 100 nM | < 100 nM |
| CCN1CCc2ccc(Nc3ncc(F)c(Nc4ccccc4C(=O)NC)n3)cc2CC1 [Example 196, 2-[2-(3-Ethyl-2,3,4,5-tetrahydro-1H-benzo[d]azepin-7-ylamino)-5-fluoro-pyrimidin-4-ylamino]-N-methyl-benzamide] | < 100 nM | < 100 nM |
| CNC(=O)c1ccccc1Nc1nc(Nc2ccc3c(c2)CCCC(=O)N3C)ncc1Br [Example 197, 2-[5-Bromo-2-(1-methyl-2-oxo-2,3,4,5-tetrahydro-1H-benzo[b]azepin-7-ylamino)-pyrimidin-4-ylamino]-N-methyl-benzamide] | < 100 nM | < 100 nM |
| CNC(=O)c1ccccc1Nc1nc(Nc2cc3c(cc2OC)CCN(CCOC)CC3)ncc1Br [Example 198, 2-{5-Bromo-2-[8-methoxy-3-(2-methoxy-ethyl)-2,3,4,5-tetrahydro-1H-benzo[d]azepin-7-ylamino]-pyrimidin-4-ylamino}-N-methyl-benzamide] | < 100 nM | 1000 to 10000 nM |
| CCN1CCc2ccc(Nc3ncc(Cl)c(NCCC(=O)NC)n3)cc2CC1 [Example 211, 3-[5-Chloro-2-(3-ethyl-2,3,4,5-tetrahydro-1H-benzo[d]azepin-7-ylamino)-pyrimidin-4-ylamino]-N-methyl-propionamide] | 100 to 1000 nM | 1000 to 10000 nM |
| CCN1CCc2ccc(Nc3ncc(Cl)c(NCCCC(=O)NC)n3)cc2CC1 [Example 212, 4-[5-Chloro-2-(3-ethyl-2,3,4,5-tetrahydro-1H-benzo[d]azepin-7-ylamino)-pyrimidin-4-ylamino]-N-methyl-butyramide] | 1000 to 10000 nM | 1000 to 10000 nM |
| CNC(=O)c1ccccc1Nc1nc(Nc2cccc3c2C(=O)N(C)CCN3C)ncc1Cl [Example 213, 2-[5-Chloro-2-(1,4-dimethyl-5-oxo-2,3,4,5-tetrahydro-1H-benzo[e][1,4]diazepin-6-ylamino)-pyrimidin-4-ylamino]-N-methyl-benzamide] | 1000 to 10000 nM | > 10000 nM |
| CN1CCN(C)c2cccc(Nc3ncc(Cl)c(N[C@@H]4CCCC[C@H]4NS(C)(=O)=O)n3)c2C1=O [Example 214, N-{(1R,2R)-2-[5-Chloro-2-(1,4-dimethyl-5-oxo-2,3,4,5-tetrahydro-1H-benzo[e][1,4]diazepin-6-ylamino)-pyrimidin-4-ylamino]-cyclohexyl}-methanesulfonamide] | 100 to 1000 nM | 1000 to 10000 nM |
| CN1CCN(C)c2cccc(Nc3ncc(Cl)c(Nc4ccccc4NS(C)(=O)=O)n3)c2C1=O [Example 215, N-{2-[5-Chloro-2-(1,4-dimethyl-5-oxo-2,3,4,5-tetrahydro-1H-benzo[e][1,4]diazepin-6-ylamino)-pyrimidin-4-ylamino]-phenyl}-methanesulfonamide] | > 10000 nM | > 10000 nM |
| CCN1CCc2ccc(Nc3ncc(Cl)c(Nc4ccccc4-c4nccn4C)n3)cc2CC1 [Example 216, 5-Chloro-N*2*-(3-ethyl-2,3,4,5-tetrahydro-1H-benzo[d]azepin-7-yl)-N*4*-[2-(1-methyl-1H-imidazol-2-yl)-phenyl]-pyrimidine-2,4-diamine] | < 100 nM | 100 to 1000 nM |
| Cn1ccnc1-c1ccccc1Nc1nc(Nc2ccc3c(c2)CCC(=O)CC3)ncc1Cl [Example 217, 2-{5-Chloro-4-[2-(1-methyl-1H-imidazol-2-yl)-phenylamino]-pyrimidin-2-ylamino}-5,6,8,9-tetrahydro-benzocyclohepten-7-one] | < 100 nM | 100 to 1000 nM |
| Cn1ccnc1-c1ccccc1Nc1nc(Nc2ccc3c(c2)CCC(N2CCOCC2)CC3)ncc1Cl (stereo not drawn) [Example 218, 5-Chloro-N*4*-[2-(1-methyl-1H-imidazol-2-yl)-phenyl]-N*2*-(7-morpholin-4-yl-6,7,8,9-tetrahydro-5H-benzocyclohepten-2-yl)-pyrimidine-2,4-diamine] | < 100 nM | 100 to 1000 nM |
| Cn1ccnc1-c1ccccc1Nc1nc(Nc2ccc3c(c2)CCC(F)(F)CC3)ncc1Cl [Example 219, 5-Chloro-N*2*-(7,7-difluoro-6,7,8,9-tetrahydro-5H-benzocyclohepten-2-yl)-N*4*-[2-(1-methyl-1H-imidazol-2-yl)-phenyl]-pyrimidine-2,4-diamine] | 100 to 1000 nM | > 10000 nM |
| CC1(C)CCC(=O)Nc2ccc(Nc3ncc(Cl)c(Nc4ccccc4-c4ncc[nH]4)n3)cc21 [Example 220, 7-{5-Chloro-4-[2-(1H-imidazol-2-yl)-phenylamino]-pyrimidin-2-ylamino}-5,5-dimethyl-1,3,4,5-tetrahydro-benzo[b]azepin-2-one] | < 100 nM | 1000 to 10000 nM |
| COCCN1CCc2ccc(Nc3ncc(Cl)c(Nc4ccccc4-c4ncc[nH]4)n3)cc2CC1 [Example 221, 5-Chloro-N*4*-[2-(1H-imidazol-2-yl)-phenyl]-N*2*-[3-(2-methoxy-ethyl)-2,3,4,5-tetrahydro-1H-benzo[d]azepin-7-yl]-pyrimidine-2,4-diamine] | < 100 nM | 100 to 1000 nM |
| CCOCn1ccnc1-c1ccccc1Nc1nc(Nc2ccc3c(c2)CCN(CCOC)CC3)ncc1Cl [Example 222, 5-Chloro-N*4*-[2-(1-ethoxymethyl-1H-imidazol-2-yl)-phenyl]-N*2*-[3-(2-methoxy-ethyl)-2,3,4,5-tetrahydro-1H-benzo[d]azepin-7-yl]-pyrimidine-2,4-diamine] | < 100 nM | 1000 to 10000 nM |
| CS(=O)(=O)Nc1ccccc1Nc1nc(Nc2ccc3c(c2)CNC(=O)NC3)ncc1Cl [Example 225, N-{2-[5-Chloro-2-(3-oxo-2,3,4,5-tetrahydro-1H-benzo[e][1,3]diazepin-7-ylamino)-pyrimidin-4-ylamino]-phenyl}-methanesulfonamide] | < 100 nM | 1000 to 10000 nM |
| CS(=O)(=O)N[C@@H]1CCCC[C@H]1Nc1nc(Nc2ccc3c(c2)CNC(=O)NC3)ncc1Cl [Example 226, N-{(1R,2R)-2-[5-Chloro-2-(3-oxo-2,3,4,5-tetrahydro-1H-benzo[e][1,3]diazepin-7-ylamino)-pyrimidin-4-ylamino]-cyclohexyl}-methanesulfonamide] | < 100 nM | 1000 to 10000 nM |
| CNC(=O)c1ccccc1Nc1nc(Nc2ccc3c(c2)CNC(=O)NC3)ncc1Cl [Example 227, 2-[5-Chloro-2-(3-oxo-2,3,4,5-tetrahydro-1H-benzo[e][1,3]diazepin-7-ylamino)-pyrimidin-4-ylamino]-N-methyl-benzamide] | < 100 nM | < 100 nM |
| NC(=O)C1C2C=CC(C2)C1Nc1nc(Nc2ccc3c(c2)CNC(=O)NC3)ncc1Cl (stereo not drawn) [Example 228, (2-exo,3-exo)-3-[5-Chloro-2-(3-oxo-2,3,4,5-tetrahydro-1H-benzo[e][1,3]diazepin-7-ylamino)-pyrimidin-4-ylamino]-bicyclo[2.2.1]hept-5-ene-2-carboxylic acid amide] | < 100 nM | 100 to 1000 nM |
| CNC(=O)c1ccccc1Nc1nc(Nc2cccc3c2C(=O)NC(C)CN3C(=O)C(F)(F)F)ncc1Cl (stereo not drawn) [Example 229, 2-{5-Chloro-2-[3-methyl-5-oxo-1-(2,2,2-trifluoro-acetyl)-2,3,4,5-tetrahydro-1H-benzo[e][1,4]diazepin-6-ylamino]-pyrimidin-4-ylamino}-N-methyl-benzamide] | > 10000 nM | > 10000 nM |
| CC1CNC(=O)c2c(Nc3ncc(Cl)c(N[C@@H]4CCCC[C@H]4NS(C)(=O)=O)n3)cccc2N1C(=O)C(F)(F)F (stereo partly drawn) [Example 231, N-((1R,2R)-2-{5-Chloro-2-[2-methyl-5-oxo-1-(2,2,2-trifluoro-acetyl)-2,3,4,5-tetrahydro-1H-benzo[e][1,4]diazepin-6-ylamino]-pyrimidin-4-ylamino}-cyclohexyl)-methanesulfonamide] | 100 to 1000 nM | 1000 to 10000 nM |
| CCN1CCc2ccc(Nc3ncc(Cl)c(N[C@@H]4CCCC[C@H]4NS(C)(=O)=O)n3)c(OC)c2CC1 [Example 232, N-{(1R,2R)-2-[5-Chloro-2-(3-ethyl-6-methoxy-2,3,4,5-tetrahydro-1H-benzo[d]azepin-7-ylamino)-pyrimidin-4-ylamino]-cyclohexyl}-methanesulfonamide] | < 100 nM | > 10000 nM |
| CCN1CCc2ccc(Nc3ncc(Cl)c(Nc4ccccc4NS(C)(=O)=O)n3)c(OC)c2CC1 [Example 233, N-{2-[5-Chloro-2-(3-ethyl-6-methoxy-2,3,4,5-tetrahydro-1H-benzo[d]azepin-7-ylamino)-pyrimidin-4-ylamino]-phenyl}-methanesulfonamide] | < 100 nM | > 10000 nM |
| CCN1CCc2ccc(Nc3ncc(Cl)c(Nc4ccccc4C(=O)NC)n3)c(OC)c2CC1 [Example 234, 2-[5-Chloro-2-(3-ethyl-6-methoxy-2,3,4,5-tetrahydro-1H-benzo[d]azepin-7-ylamino)-pyrimidin-4-ylamino]-N-methyl-benzamide] | < 100 nM | > 10000 nM |
